Assay results from patent US20150105252A1, “SUBSTITUTED PYRAZOLES AS HERBICIDES” (E I DU PONT DE NEMOURS AND COMPANY, priority 2013, published 2015).

Legend:
Conditions in all cases: scale 0 to 100
galium [1] = experiment: Test D postemergence; type: in vivo, Galium aparine
Text: (§1) Seeds of plant species selected from bluegrass (annual bluegrass, Poa annua), blackgrass (Alopecurus myosuroides), canarygrass (littleseed canarygrass, Phalaris minor), chickweed (common chickweed, Stellaria media), galium (catchweed bedstraw, Galium aparine), bromegrass, downy (downy bromegrass, Bromus tectorum), field poppy (Papaver rhoeas), field violet (Viola arvensis), foxtail, green (green foxtail, Setaria viridis), deadnettle (henbit deadnettle, Lamium amplexicaule), ryegrass, Italian (Italian ryegrass, Lolium multiflorum), kochia (Kochia scoparia), lambsquarters (Chenopodium album), oilseed rape (Brassica napus), pigweed (redroot pigweed, Amaranthus retroflexus), chamomile (scentless chamomile, Matricaria inodora), speedwell (bird's-eye speedwell, Veronica persica), barley, spring (spring barley, Hordeum vulgare), wheat, spring (spring wheat, Triticum aestivum), buckwheat, wild (wild buckwheat, Polygonum convolvulus), mustard, wild (wild mustard, Sinapis arvensis), oat, wild (wild oat, Avena fatua), radish, wild (wild radish, Raphanus raphanistrum), windgrass (Apera spica-venti), Russian thistle (Salsola kali), barley, winter (winter barley, Hordeum vulgare), and wheat, winter (winter wheat, Triticum aestivum) were planted into a silt loam soil and treated preemergence with test chemicals formulated in a non-phytotoxic solvent mixture which included a surfactant.
(§2) At the same time, these species were planted in pots containing Redi-Earth® planting medium (Scotts Company, 14111 Scottslawn Road, Marysville, Ohio 43041) comprising spaghnum peat moss, vermiculite, wetting agent and starter nutrients and treated with postemergence applications of the test chemicals formulated in the same manner. Plants ranged in height from 2 to 18 cm (1- to 4-leaf stage). Treated plants and controls were maintained in a controlled growth environment for 14 to 21 days after which time all species were compared to controls and visually evaluated. Plant response ratings, summarized in Table D, are based on a scale of 0 to 100 where 0 is no effect and 100 is complete control. A dash (-) response means no test result.

lambsquarters = experiment: Test D postemergence; type: in vivo, Chenopodium album
How it was run: (§3)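 Scores of 0 (no effect) to 100 (complete control) come from visual comparison with untreated plants 14–21 days after spraying. Applications were made pre-emergence to silt loam or post-emergence to plants 2–18 cm tall.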

radish, wild = experiment: Test D postemergence; type: in vivo, Raphanus raphanistrum
How it was run: as §3

buckwheat, wild = experiment: Test D postemergence; type: in vivo, Polygonum convolvulus
Text: as §1, §2

mustard, wild = experiment: Test D postemergence; type: in vivo, Sinapis arvensis
How it was run: as §3

galium [2] = experiment: Test D preemergence; type: in vivo, Galium aparine
How it was run: as §3

wheat, spring = experiment: Test D postemergence; type: in vivo, Triticum aestivum
How it was run: as §3

wheat, winter = experiment: Test D postemergence; type: in vivo, Triticum aestivum
How it was run: as §3

foxtail, green = experiment: Test D postemergence; type: in vivo, Setaria viridis
Text: as §1, §2

| Structure (SMILES) | Galium plant response rating (galium [1]; Postemergence, 31 g ai/ha) | Galium plant response rating (galium [1]; Postemergence, 125 g ai/ha) | Galium plant response rating (galium [1]; Postemergence, 250 g ai/ha) | Galium plant response rating (galium [1]; postemergence, 62 g ai/ha) | Lambsquarters plant response rating (lambsquarters; Postemergence, 31 g ai/ha) | Lambsquarters plant response rating (lambsquarters; Postemergence, 125 g ai/ha) | Lambsquarters plant response rating (lambsquarters; Postemergence, 250 g ai/ha) | Lambsquarters plant response rating (lambsquarters; postemergence, 62 g ai/ha) | Radish, Wild plant response rating (radish, wild; Postemergence, 31 g ai/ha) | Radish, Wild plant response rating (radish, wild; Postemergence, 125 g ai/ha) | Radish, Wild plant response rating (radish, wild; Postemergence, 250 g ai/ha) | Radish, Wild plant response rating (radish, wild; postemergence, 62 g ai/ha) | Buckwheat, Wild plant response rating (buckwheat, wild; Postemergence, 31 g ai/ha) | Buckwheat, Wild plant response rating (buckwheat, wild; Postemergence, 125 g ai/ha) | Buckwheat, Wild plant response rating (buckwheat, wild; Postemergence, 250 g ai/ha) | Buckwheat, Wild plant response rating (buckwheat, wild; postemergence, 62 g ai/ha) | Mustard, Wild plant response rating (mustard, wild; Postemergence, 31 g ai/ha) | Mustard, Wild plant response rating (mustard, wild; Postemergence, 125 g ai/ha) | Mustard, Wild plant response rating (mustard, wild; Postemergence, 250 g ai/ha) | Mustard, Wild plant response rating (mustard, wild; postemergence, 62 g ai/ha) | further results |
| --- | --- | --- | --- | --- | --- | --- | --- | --- | --- | --- | --- | --- | --- | --- | --- | --- | --- | --- | --- | --- | --- |
| CCCc1cc(C(=O)NCC(F)(F)F)nn1Cc1cc(C(F)(F)F)nn1C [Compound 138] | 80 | 100 | 100 | 80 | 80 | 80 | 80 | 80 | 80 | 100 | 95 | 80 | 65 | 70 | 80 | 65 | 100 | 100 | 100 | 100 | Plant response rating, Galium (galium [2]; 62 g ai/ha): 100; Plant response rating, Galium (galium [2]; 125 g ai/ha): 100; Plant response rating, Galium (galium [2]; 250 g ai/ha): 100; Wheat, Spring plant response rating (wheat, spring; Postemergence, 31 g ai/ha): 15; Wheat, Spring plant response rating (wheat, spring; Postemergence, 125 g ai/ha): 15; Wheat, Spring plant response rating (wheat, spring; Postemergence, 250 g ai/ha): 25; Wheat, Spring plant response rating (wheat, spring; postemergence, 62 g ai/ha): 15; Wheat, Winter plant response rating (wheat, winter; Postemergence, 31 g ai/ha): 15; Wheat, Winter plant response rating (wheat, winter; Postemergence, 125 g ai/ha): 20; Wheat, Winter plant response rating (wheat, winter; Postemergence, 250 g ai/ha): 35; Wheat, Winter plant response rating (wheat, winter; postemergence, 62 g ai/ha): 15; Foxtail, Green plant response rating (foxtail, green; Postemergence, 31 g ai/ha): 15; Foxtail, Green plant response rating (foxtail, green; Postemergence, 125 g ai/ha): 65; Foxtail, Green plant response rating (foxtail, green; Postemergence, 250 g ai/ha): 80; Foxtail, Green plant response rating (foxtail, green; postemergence, 62 g ai/ha): 15 |
| CCOc1cc(C(=O)NC2CC2)nn1Cc1ccnc(C(F)(F)F)c1 [Compound 189] | 75 | 75 | 85 | 75 | 75 | 80 | 90 | 75 | 60 | 65 | 85 | 60 | 70 | 70 | 80 | 70 | 40 | 40 | 80 | 40 | Plant response rating, Galium (galium [2]; 62 g ai/ha): 75; Plant response rating, Galium (galium [2]; 125 g ai/ha): 70; Plant response rating, Galium (galium [2]; 250 g ai/ha): 100; Wheat, Spring plant response rating (wheat, spring; Postemergence, 31 g ai/ha): 0; Wheat, Spring plant response rating (wheat, spring; Postemergence, 125 g ai/ha): 5; Wheat, Spring plant response rating (wheat, spring; Postemergence, 250 g ai/ha): 25; Wheat, Spring plant response rating (wheat, spring; postemergence, 62 g ai/ha): 0; Wheat, Winter plant response rating (wheat, winter; Postemergence, 31 g ai/ha): 20; Wheat, Winter plant response rating (wheat, winter; Postemergence, 125 g ai/ha): 25; Wheat, Winter plant response rating (wheat, winter; Postemergence, 250 g ai/ha): 50; Wheat, Winter plant response rating (wheat, winter; postemergence, 62 g ai/ha): 20; Foxtail, Green plant response rating (foxtail, green; Postemergence, 31 g ai/ha): 20; Foxtail, Green plant response rating (foxtail, green; Postemergence, 125 g ai/ha): 15; Foxtail, Green plant response rating (foxtail, green; Postemergence, 250 g ai/ha): 50; Foxtail, Green plant response rating (foxtail, green; postemergence, 62 g ai/ha): 20 |
